Reference: patent publication US20240309014A1, “MACROCYCLIC COMPOUNDS AND USES THEREOF” (President and Fellows of Harvard College, priority 2017, published 2024)

Test system: α-SMA expression in BJ normal human fibroblasts
Assay: α-SMA expression in BJ fibroblasts co-cultivated with FaDu cells
Type: cell-based
Details: BJ cells co-cultured with FaDu for three days
Description: FIG. 19A. BJ cells (normal human […] fibroblasts) were co-cultured with FaDu cells for three days in the absence (vehicle) or presence of A83-01, a potent selective TGF-β-R inhibitor, and the expression of α-SMA was analysed by immunofluorescence staining (red color). Samples were also stained with anti-pan-human cytokeratin (green color) for cancer cell staining and DAPI (blue color) for nuclear staining. FIGS. 19B-19E BJ cells were treated with Compound (1) (0.15 nmol/L in immunofluorescence staining data and indicated concentrations in western blot analysis data) and TGF-β for 2 days. FIGS. 19B-19E. Samples were stained with the indicated antibody (red color) and DAPI (blue color) for nuclear staining. FIG. 19E Western blot images and quantification of the images. […] FIGS. 19G and 19E BJ cells were pretreated with defactinib (1 μmol/L) and TGF-β for 2 days. The lens magnification used was x4 (FIGS. 19A, 19B, 19C, 19G, and 19H) or x40 (FIGS. 19D and 19E).
The expression of α-SMA was induced in BJ normal human fibroblasts upon co-cultivation with FaDu cells, and the expression was attenuated by treatment with A83-01, a potent selective inhibitor of the TGF-β-receptor (FIG. 19A).

In the case of `Cc1cccc(-c2nn(C(=S)Nc3ccccc3)cc2-c2ccnc3ccccc23)n1` [Compound A83-01], the “expression of α-SMA induced upon co-cultivation with FaDu cells” value is reported as “attenuated”.
